Numbers after ± are expanded uncertainties.
Assays:
[1] = DTA
[2] = Molar enthalpy of transition or fusion; conditions: DSC

Triple point temperature ([1]; Crystal 1) [K]	Triple point temperature ([1]; Crystal 2) [K]	Triple point temperature ([1]; Smectic liquid crystal) [K]	Molar enthalpy of transition or fusion ([2]; Crystal 1) [kcal/mol]	Molar enthalpy of transition or fusion ([2]; Crystal 2) [kcal/mol]	Molar enthalpy of transition or fusion ([2]; Smectic liquid crystal) [kcal/mol]	SMILES
406.85 ± 10	380.45 ± 10	459.05 ± 0.5	1.1 ± 0.129	1.49 ± 0.134	0.32 ± 0.124	CCCCCC(=O)[O-].CCCCCC(=O)[O-].CCCCCC(=O)[O-].[La+3] [lanthanum(III) hexanoate]
410.95 ± 10	366.15 ± 10	451.65 ± 10	1.69 ± 0.136	–	0.717 ± 0.127	CCCCC(=O)[O-].CCCCC(=O)[O-].CCCCC(=O)[O-].[La+3] [lanthanum(III) pentanoate]
